Experimental data taken from patent publication US20220152044A1, “TREATMENT OF INFLAMMATORY DISEASES OF THE CENTRAL NERVOUS SYSTEM” (PALMAYA PTY LTD, priority 2019, published 2022).
Several values for one entry are separate records, joined by “and”; a condition that tells them apart may be missing. Equal entries are not always repeated. Entries after “also recorded” stand apart in the source; their conditions may differ.

Columns and labels:
[1] = Blood / plasma flumazenil level in patients; assay type: in vivo, human
Experimental: In a severe patient population, ondansetron may be given every 6-8 hours to assist in reducing the nausea and associated anxiety symptoms.
(§1) The patient was then treated with a subcutaneous implant delivering an estimated 60-80 micrograms per hour of flumazenil (based on water bath release rate testing). The implant was expected to last 8-10 weeks. This prevented the migraines for about 9-10weeks. In the week before the implant was inserted, the patient's blood flumazenil level was noted to be 0.5 ng/ml. The usual expected level for 160 microgram an hour infusions was in the order of 2-3 ng per ml and 1-1.5 ng for 80 microgram per hour infusions.
This finding that the migraines were stopped for a nine week period of time was amazing to the patient as they had suffered migraines for typically three weeks out of four for all of the years […]. At the end of week 8 on the first implant their blood flumazenil level was recorded as 0.5 ng per ml, which is considered a low level. Within a week another migraine started and the patient presented to the clinic for treatment.
This next implant was also delivering an estimated 60-80 micrograms of flumazenil per hour. Evidence of ovulation was confirmed by routine elevation of progesterone during the luteal phase of one of the two cycles during the time of this second implant. Again no migraines occurred during an 8-9 week time of the second implant. Blood levels of flumazenil at 1.2 and 1.3 ng/ml were recorded during the time of the second implant. After 9-10 weeks the patient, presented to a teaching hospital on the weekend with another migraine. They were treated with all the modern treatments for migraines without resolution of the migraine.

[2] = Water bath release rate testing of flumazenil implant; assay type: physicochemical; details: based on water bath release rate testing
Experimental: as §1

[3] = tested on: smoking of nicotine cigarettes; assay: Smoking of nicotine cigarettes in a group of 80 patients treated with flumazenil; assay type: in vivo, human
Text: We have found a reduction in smoking of nicotine cigarettes with the use of flumazenil. We were able to document that those smoking changed from 82.7% before treatment to 75% following treatment in a group of 80 patients being treated with flumazenil.

alcohol patients = assay: Survey of 84 alcohol patients after flumazenil infusions or implants; assay type: in vivo, human
Text: In a survey of 84 alcohol patients the percent of patients drinking daily fell from 14.5% to 5.5% following flumazenil infusions or implants.

cannabis use = assay: Survey of 109 patients, cannabis use after flumazenil infusion; assay type: in vivo, human
Text: In a survey of 109 patients daily use was close to halved from 10% to 5.5%.

any dependency = assay: Detoxification from any dependency, 108 patients followed; assay type: in vivo, human
PTSD = PTSD patients treated with flumazenil and/or naltrexone; assay type: in vivo, human; details: infusions and implants
Text: Post Trauma Stress Disorder (PTSD), causes dysregulation of anxiety control that may damage the GABAA system and present as hypervigilance, sleep disturbance, anxiety, gastrointestinal (GIT) or bladder symptoms. We have been using flumazenil for more than 8 years to treat patients presenting complex. The infusions and implants give relief to the anxiety, sleep disturbance and the GIT symptoms as well as urinary symptoms in many well established PTSD patients.
Sleep remained normal following this. The profound recovery of sleep in patients with PTSD using flumazenil and naltrexone by continuous delivery has not previously been described.

[4] = tested on: benzodiazepine detoxification; assay: Benzodiazepine detoxification with subcutaneous flumazenil infusion; assay type: in vivo, human
Experimental: Benzodiazepines bring relief to stress and are involved in the release of dopamine. As with all other significant addictions, self-control is extremely damaged in patients with a severe benzodiazepine addiction. Our observations of the treatment of poly-drug dependency which includes benzodiazepine usually responds well to the use of flumazenil at 40-160 μg/hour together with 40-160 μg/hour or greater. […] The continual delivery of flumazenil at this rate allows most patients to reduce their benzodiazepine dosing over a few days to a week or two. The control of symptoms as these patients cease their benzodiazepine is controlled so that the majority of patients can cease benzodiazepine use successfully.
We have used our solution of flumazenil at 16 mg per 30 ml with a pH of 4±1 as a subcutaneous infusion at 40 to 160 μg per hour as our standard treatment to reduce the symptoms associated with benzodiazepine detoxification.
Anticonvulsants, such as sodium valproate at 500 to 1000 mg per day were used for the first 10 days of flumazenil treatment to reduce the risk of epileptic seizures. […] The infusion may require several weeks of treatment and can be followed up with a flumazenil infusion delivering 40 to 160 μg per hour or more, as required to complete detoxification from the opioid.

HPA axis = HPA axis in stressed animals; assay type: in vivo
Text: For this reason the combination of sustained release naltrexone and sustained release flumazenil using injections, implants or infusions would be expected to limit neuro-inflammatory diseases and their symptoms.

migraine patients = assay: Two migraine patients, follow-up during and after flumazenil delivery; assay type: in vivo, human
Experimental: Two migraine patients initially described migraine symptoms, are both symptom free for more than a year. No repeat treatments occurred in the second of the migraine patients, and as such, believe that the treatment might be curative in some patients.
In these two patients treated for migraines, the first patient the history of migraines affecting their required an infusion initially, and then flumazenil implants maintaining at least 1 ng per ml of flumazenil to achieve relief of symptoms. In a second patient we noted that the symptom relief has lasted for more than 12 months when treatment with a flumazenil implant lasting an estimated six months occurred.

premenstrual tension = assay: Premenstrual anxiety and symptoms in women treated with flumazenil; assay type: in vivo, human; details: women complaining of premenstrual tension
craving for nicotine = assay: Nicotine craving and use in patients; assay type: in vivo, human; details: flumazenil by infusion or nasally/sublingually 50 to 200 micrograms per dose
amphetamine use = assay: Amphetamine / methamphetamine craving and withdrawal; assay type: in vivo, human; details: methamphetamine patients, flumazenil infusions at 160 μg/hour
Experimental: In those patients that return 2-3 weeks with extreme anxiety and a desire to return to amphetamine use, the commencement of flumazenil infusions followed by a flumazenil implant that sustains a plasma concentration of flumazenil at 0.5-2 ng/ml or more decreases the cravings, including a decrease in the desire for amphetamines and allows reduction f irritability and aggression.

anxiety = assay: Anxiety during and after medication delivery; assay type: in vivo, human; details: flumazenil infusions; for many patients continued for very long periods afterwards
Text: These observations appeared to indicate a cure or recovery of the patients underlying disease rather than relief of symptoms only. These observations included patients treated in five other years as well as the group treated in 2016-2017.

usual expected blood flumazenil level ([1]; 80 microgram per hour infusions): 1 to 1.5 ng
usual expected blood flumazenil level ([1]; 160 microgram an hour infusions): 2-3 ng per ml
concentration at 8 weeks ([1]; human, blood, subcutaneous, migraine patient, end of week 8 on the first implant): 0.5 ng/mL
blood levels of flumazenil ([1]; migraine patient, during the time of the second implant): 1.2 ng/mL and 1.3 ng/mL
blood flumazenil level ([1]; migraine patient, in the week before the implant was inserted): 0.5 ng/mL
estimated delivery rate of flumazenil from subcutaneous implant [2]: 60-80 micrograms per hour
flumazenil level maintained by implants to achieve relief of symptoms (migraine patients; first migraine patient, infusion initially then implants): at least 1 ng per ml
Compound: CCOC(=O)c1ncn2c1CN(C)C(=O)c1cc(F)ccc1-2 [flumazenil]
fall in those using (smoking) daily ([3]; from 78.1% to 71.4%): 4%
those smoking following treatment ([3]; group of 80 patients, 82.7% before treatment): 75%
those using (smoking) daily following treatment ([3]; same population, 78.1% before treatment): 71.4%
percentage abstinent to alcohol following treatment (alcohol patients; 53.1% before): 77.1%
percent of patients drinking daily following treatment (alcohol patients; flumazenil infusions or implants, 14.5% before): 5.5%
daily cannabis use following treatment (cannabis use; 109 patients, 10% before): 5.5%
abstinence from cannabis following treatment (cannabis use; 109 patients, 75% before): 83.5%
patient-reported cannabis cessation symptoms (nausea day one, anxiety, sleep, paranoid and psychotic thinking, suicidal thoughts) (cannabis use; patients who presented to cease cannabis): anxiety was decreased and sleep was better
daily use of alcohol, smoking, cannabis, amphetamines, opioids and other drug use (any dependency): reduction in daily use
PTSD symptoms (anxiety, sleep disturbance, GIT and urinary symptoms) (PTSD): give relief; also recorded: significant improvement
blocking of positive modulation of the GABAA receptor with benzodiazepines ([4]; flumazenil at 40-160 μg/hour): not significantly blocked
time to cease benzodiazepine use after commencement of the infusion ([4]; subcutaneous infusion 40 to 160 μg per hour): within a few days to a week
craving for benzodiazepines ([4]; subcutaneous infusion 40 to 160 μg per hour, 16 mg per 30 ml, pH 4±1): decrease in their craving for benzodiazepines
return of the HPA axis to normal (HPA axis): help return the HPA axis
duration of symptom relief (migraine patients; second patient, flumazenil implant lasting an estimated six months, no repeat treatment): more than 12 months
symptom free period (migraine patients; two migraine patients): more than a year
premenstrual symptoms (premenstrual tension): reduction in premenstrual symptoms
craving for and use of nicotine (craving for nicotine): reduced craving and use
severe withdrawal symptoms including psychosis or extreme anxiety (amphetamine use): prevent these symptoms
anxiety during the time of medication delivery (anxiety): reduction of anxiety
